Reference: patent US12171230B2, “Herbicidal compositions” (Bayer Aktiengesellschaft, priority 2018, dated 2024)
Several values for one entry are separate records, joined by “and”; a condition that tells them apart may be missing. Equal values may be shown once.

Legend:
Format in all cases: in vivo
[1] = tested on: Galium aparine; assay: Post-emergence herbicidal action against Galium aparine
How it was run: (§1)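 Greenhouse pot test: three-leaf-stage plants, three weeks from sowing, sprayed with spray-powder or emulsion-concentrate formulations at several dosages (300 to 800 l/ha water). Efficacy rated visually against untreated plants some 3 to 4 weeks later, with Colby formula giving expected combination effect.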

[2] = tested on: Chenopodium album; assay: Post-emergence herbicidal action against Chenopodium album
Experimental: When the observed efficacies exceed the formal sum total of the values of the tests with individual applications, they also exceed the expected value according to Colby, which is calculated using the formula below and is likewise regarded as an indication of synergism (cf. S. R. Colby; in Weeds 15 (1967) p. 20 to 22): E^C=A+B−([…])
Here: • A=efficacy of the active compound (A) in % at an application rate of a g a.i./ha; • B=efficacy of the active compound (B) in % at an application rate of b g a.i./ha; • E^C=expected value of the effect of the combination (A)+(B) in % at the combined application rate a+b g a.i./ha.
Seeds or rhizome pieces of mono- and dicotyledonous weeds are placed in sandy loam in pots, covered with soil and grown in a greenhouse under good growth conditions (temperature, air humidity, water supply). Three weeks after sowing, the test plants were treated at the three-leaf stage with the compositions according to the invention. The compositions according to the invention formulated as spray powders or as emulsion concentrates were sprayed onto the green plant parts in various dosages with an application rate of 300 to 800 l/ha of water (equivalent). After the test plants have been left to stand in the greenhouse under optimal growth conditions for about 3 to 4 weeks, the action of the preparations is scored visually in comparison to untreated controls. The compositions according to the invention also have good post-emergence herbicidal activity against a broad spectrum of economically important gramineous and broadleaf weeds.

[3] = tested on: Echinochloa crus-galli; assay: Post-emergence herbicidal action against Echinochloa crus-galli; conditions: 100 g a.i./ ha, post-emergence
How it was run: as §1

[4] = tested on: Lolium rigidum; assay: Post-emergence herbicidal action against Lolium rigidum
How it was run: (§2)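 Dose unit: g a.i./ha (100% active). Scoring in days after application (DAT). E^A = sum of single-application effects; E^C = Colby expected value.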

[5] = tested on: Lolium rigidum (resistant biotype); assay: Post-emergence herbicidal action against Lolium rigidum (resistant biotype)
How it was run: as §2

[6] = tested on: Kochia scoparia; assay: Post-emergence herbicidal action against Kochia scoparia; conditions: 1.7 g of a.i./ha
Excerpt: (§3) The following abbreviations are used in the description and the tables that follow: • g of a.i./ha=grams of active substance (active ingredient) (=100% active compound) per hectare; • The sum total of the effects of the individual applications is reported under E^A; • expected values according to Colby are each reported under E^C.
(§4) The rating period is reported in days after application (DAT).

[7] = tested on: Alopecurus myosuroides; assay: Post-emergence herbicidal action against Alopecurus myosuroides
How it was run: as §2

[8] = tested on: Brachiaria plantaginea; assay: Post-emergence herbicidal action against Brachiaria plantaginea
Excerpt: as §3, §4

[9] = tested on: Bromus sterilis; assay: Post-emergence herbicidal action against Bromus sterilis
How it was run: as §2

[10] = tested on: Digitaria horizontalis; assay: Post-emergence herbicidal action against Digitaria horizontalis
Excerpt: as §3, §4

[11] = tested on: Veronica hederifolia; assay: Post-emergence herbicidal action against Veronica hederifolia
Excerpt: as §3, §4

[12] = tested on: Brachiaria decumbens; assay: Post-emergence herbicidal action against Brachiaria decumbens; conditions: g of a.i./ha: 200, 100, 100 + 200
Excerpt: as §3, §4

[13] = tested on: Abutilon theophrasti; assay: Post-emergence herbicidal action against Abutilon theophrasti
Excerpt: as §3, §4

[14] = (Z61) post-emergence, g of a.i./ha: 1, 270, 90, 30, 1 + 270, 1 + 90, 1 + 30
[15] = (Z61) post-emergence, g of a.i./ha: 200, 100, 100 + 200

C=C[C@]1(C(=O)N[C@H]2CO[C@@H](C(=O)OC)C2)CC(c2cc(F)cc(F)c2)=NO1 (relative stereo) [Compound A3, methyl rel-(2R,4R)-4-[[(5S)-3-(3,5-difluorophenyl)-5-vinyl-4H-isoxazole-5-carbonyl]amino]tetrahydrofuran-2-carboxylate]
Herbicidal action in [%] 28 DAT against Galium aparine ([1]; 1 g of a.i./ha): 15% | Herbicidal action in [%] 28 DAT against Galium aparine ([1]; 4 g of a.i./ha): 65% | Herbicidal action in [%] 28 DAT against Galium aparine ([1]; 4 g of a.i./ha, post-emergence): 70% | Herbicidal action against Galium aparine ([1]; 14 DAT, 1 g of a.i./ha): 40% | Herbicidal action 28 DAT against Galium aparine ([1]; 16 g of a.i./ha): 75% | Herbicidal action in [%] 28 DAT against Galium aparine ([1]; 16 g of a.i./ha): 75% | Herbicidal action in [%] 28 DAT against Galium aparine ([1]; 16 g of a.i./ha, post-emergence): 80% | Herbicidal action against Galium aparine ([1]; 28 DAT, 1 g of a.i./ha): 15% | Herbicidal action 14 DAT against Galium aparine [1, 14]: 40% | Herbicidal action 27 DAT [%] against Chenopodium album ([2]; 100 g of a.i./ha): 85% | Herbicidal action 27 DAT against Chenopodium album ([2]; g of a.i./ha: 180, 100, 100 + 180): 85% | Herbicidal action 37 DAT [%] against Echinochloa crus-galli [3]: 93% | Herbicidal action 14 DAT against Lolium rigidum ([4]; 1 g of a.i./ha): 35% | Herbicidal action 28 DAT against Lolium rigidum ([4]; 1 g of a.i./ha): 15% | Herbicidal action 28 DAT against Lolium rigidum ([4]; 4 g of a.i./ha): 50% | Herbicidal action in [%] 14 DAT against Lolium rigidum ([4]; 1 g of a.i./ha): 40% | Herbicidal action in [%] 14 DAT against Lolium rigidum ([4]; 4 g of a.i./ha): 85% | Herbicidal action in [%] 28 DAT against Lolium rigidum ([4]; 1 g of a.i./ha): 10% | Herbicidal action in [%] 28 DAT against Lolium rigidum ([4]; 4 g of a.i./ha): 70% | Herbicidal action 14 DAT against Lolium rigidum [4, 14]: 35% | Herbicidal action 14 DAT against Lolium rigidum (resistant biotype) ([5]; 1 g of a.i./ha): 15% and 30% | Herbicidal action 28 DAT against Lolium rigidum (resistant biotype) ([5]; 1 g of a.i./ha): 0% | Herbicidal action 14 DAT against Lolium rigidum (resistant biotype) ([5]; 4 g of a.i./ha): 40% and 60% | Herbicidal action in [%] 14 DAT against Lolium rigidum (resistant biotype) ([5]; 1 g of a.i./ha): 30% | Herbicidal action in [%] 14 DAT against Lolium rigidum (resistant biotype) ([5]; 4 g of a.i./ha): 60% | Herbicidal action 28 DAT against Lolium rigidum (resistant biotype) ([5]; 16 g of a.i./ha): 80% | Herbicidal action in [%] 28 DAT against Lolium rigidum (resistant biotype) ([5]; 1 g of a.i./ha): 0% | Herbicidal action in [%] 28 DAT against Lolium rigidum (resistant biotype) ([5]; 4 g of a.i./ha): 40% | Herbicidal action in [%] 28 DAT against Lolium rigidum (resistant biotype) ([5]; 16 g of a.i./ha): 80% | Herbicidal action 28 DAT against Lolium rigidum (resistant biotype) ([5]; (Z61) post-emergence, g of a.i./ha: 4, 1, 270, 90, 4 + 270, 1 + 90, 1 g of a.i./ha): 0% | Herbicidal action 28 DAT against Lolium rigidum (resistant biotype) ([5]; (Z61) post-emergence, g of a.i./ha: 4, 1, 270, 90, 4 + 270, 1 + 90, 4 g of a.i./ha): 10% | Herbicidal action 21 DAT against Kochia scoparia [6]: 30% | Herbicidal action 14 DAT against Alopecurus myosuroides ([7]; 1 g of a.i./ha): 15% | Herbicidal action 28 DAT against Alopecurus myosuroides ([7]; 1 g of a.i./ha): 15% | Herbicidal action 28 DAT against Alopecurus myosuroides ([7]; 4 g of a.i./ha): 50% and 60% | Herbicidal action in [%] 14 DAT against Alopecurus myosuroides ([7]; 1 g of a.i./ha): 30% | Herbicidal action in [%] 14 DAT against Alopecurus myosuroides ([7]; 4 g of a.i./ha): 75% | Herbicidal action in [%] 28 DAT against Alopecurus myosuroides ([7]; 1 g of a.i./ha): 10% | Herbicidal action in [%] 28 DAT against Alopecurus myosuroides ([7]; 4 g of a.i./ha): 60% | Herbicidal action 28 DAT [%] against Brachiaria plantaginea ([8]; 100 g of a.i./ha): 82% | Herbicidal action 28 DAT against Brachiaria plantaginea [8, 15]: 82% | Herbicidal action 28 DAT against Brachiaria plantaginea ([8]; A3/Asulam, post-emergence, g of a.i./ha by row: 720, 100, 100 + 720): 82% | Herbicidal action 14 DAT against Bromus sterilis ([9]; 1 g of a.i./ha): 15% | Herbicidal action 28 DAT against Bromus sterilis ([9]; 1 g of a.i./ha): 15% | Herbicidal action 14 DAT against Bromus sterilis ([9]; 4 g of a.i./ha): 85% | Herbicidal action in [%] 14 DAT against Bromus sterilis ([9]; 14 DAT, 1 g of a.i./ha): 30% | Herbicidal action in [%] 28 DAT against Bromus sterilis ([9]; 1 g of a.i./ha): 30% | Herbicidal action in [%] 28 DAT against Bromus sterilis ([9]; 4 g of a.i./ha): 90% | Herbicidal action 28 DAT against Bromus sterilis ([9]; (Z61) post-emergence, g of a.i./ha: 1, 270, 90, 1 + 270, 1 + 90): 15% | Herbicidal action 28 DAT against Digitaria horizontalis [10, 15]: 96% | Herbicidal action 28 DAT against Digitaria horizontalis ([10]; A3/Asulam, first sub-table, post-emergence, g of a.i./ha by row: 720, 100, 100 + 720): 96% | Herbicidal action 28 DAT against Digitaria horizontalis ([10]; A3/Asulam, second sub-table, post-emergence, g of a.i./ha by row: 720, 100, 100 + 720): 87% | Herbicidal action in [%] 14 DAT against Veronica hederifolia ([11]; 1 g of a.i./ha): 10% | Herbicidal action in [%] 14 DAT against Veronica hederifolia ([11]; 4 g of a.i./ha): 30% | Herbicidal action 14 DAT against Veronica hederifolia ([11]; 16 g of a.i./ha): 40% | Herbicidal action 14 DAT against Veronica hederifolia ([11]; g of a.i./ha: 16, 270, 16 + 270): 40% | Herbicidal action 28 DAT against Brachiaria decumbens [12]: 87% | Herbicidal action 21 DAT [%] against Abutilon theophrasti ([13]; 1.7 g of a.i./ha): 10% | Herbicidal action 21 DAT against Abutilon theophrasti ([13]; 1.7 g of a.i./ha): 0% | Herbicidal action 21 DAT against Abutilon theophrasti ([13]; 5 g of a.i./ha): 30% | Herbicidal action 21 DAT [%] against Abutilon theophrasti ([13]; 15 g of a.i./ha): 35%
